One assay has as its target T1, NK3 (Homo sapiens, UniProt P29371).
T1 sequence (P29371 1-465): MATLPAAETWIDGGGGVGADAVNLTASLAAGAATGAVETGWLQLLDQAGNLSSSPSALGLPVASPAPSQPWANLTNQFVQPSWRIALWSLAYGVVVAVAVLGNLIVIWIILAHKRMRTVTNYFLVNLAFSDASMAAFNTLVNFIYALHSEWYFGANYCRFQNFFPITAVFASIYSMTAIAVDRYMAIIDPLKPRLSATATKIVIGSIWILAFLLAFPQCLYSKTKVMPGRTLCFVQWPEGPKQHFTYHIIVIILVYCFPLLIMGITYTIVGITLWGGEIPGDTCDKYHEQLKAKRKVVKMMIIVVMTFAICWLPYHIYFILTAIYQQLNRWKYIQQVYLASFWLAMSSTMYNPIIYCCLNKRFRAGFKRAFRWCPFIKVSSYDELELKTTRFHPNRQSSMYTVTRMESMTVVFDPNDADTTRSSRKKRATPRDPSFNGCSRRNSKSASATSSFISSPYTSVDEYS
As to the kind of experiment: Signal transduction (ST), intracellular Ca++ (FLIPR), NK3. The format is cell-based. Particulars: read-out: pIC50 NK3 (converted). On the procedure: [The procedure below names another target; the source lists this target under the same test.] (§1) This test evaluates in vitro functional NK1 antagonistic activity. For the measurements of intracellular Ca^++ concentrations the cells were grown on 96-well (black wall/transparent bottom) plates from Costar for 2 days until they reached confluence. The cells were loaded with 2 μM Fluo3 in DMEM containing 0.1% BSA and 2.5 mM probenecid for 1 h at 37° C. They were washed 3× with a Krebs buffer (140 mM NaCl, 1 mM MgCl2×6H2O, 5 mM KCl, 10 mM glucose, 5 mM HEPES; 1.25 mM CaCl2; pH 7.4) containing 2.5 mM probenecid and 0.1% BSA (Ca^++-buffer). The cells were preincubated with a concentration range of antagonists for 20 min at RT and Ca^++-signals after addition of the agonists were measured in a Fluorescence Image Plate Reader (FLIPR from Molecular Devices, Crawley, England). The peak of the Ca^++-transient was considered as the relevant signal and the mean values of corresponding wells were analysed as described below.
The sigmoidal dose response curves were analysed by computerised curve-fitting, using the GraphPad Program. […] For antagonist responses the IC50-value was calculated using non-linear regression.
The last columns indicates—without being limited therefore—for which the compounds might be most suitable. Of course, since for some neurokinin receptors no data was determined, it is obvious that these compounds might be attributed to another suitable use.
Sequence of NK1 (P25103 whole entry): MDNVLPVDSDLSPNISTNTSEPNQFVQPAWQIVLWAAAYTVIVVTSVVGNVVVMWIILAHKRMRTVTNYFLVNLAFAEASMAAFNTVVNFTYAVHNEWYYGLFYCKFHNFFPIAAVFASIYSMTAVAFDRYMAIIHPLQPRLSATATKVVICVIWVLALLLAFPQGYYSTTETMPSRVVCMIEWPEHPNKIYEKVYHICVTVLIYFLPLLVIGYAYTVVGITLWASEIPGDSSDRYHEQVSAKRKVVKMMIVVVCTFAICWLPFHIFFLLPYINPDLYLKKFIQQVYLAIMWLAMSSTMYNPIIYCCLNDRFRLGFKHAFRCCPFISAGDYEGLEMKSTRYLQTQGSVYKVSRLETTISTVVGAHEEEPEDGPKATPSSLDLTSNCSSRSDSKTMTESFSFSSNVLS
As to `Cc1occc1C(=O)N1CCC(N2CCN([C@H]3CCN(C(=O)c4cc(C(F)(F)F)cc(C(F)(F)F)c4)[C@H](Cc4ccccc4)C3)CC2)C1` (stereo partly shown) [Compound 36], the IC50 is 200 nM.
On the same count and under the same terms, the same measure for `CC(C)(C)OC(=O)N1CCC(N2CCN(C3CCN(C(=O)c4cc(C(F)(F)F)cc(C(F)(F)F)c4)C(Cc4ccc(Cl)c(Cl)c4)C3)CC2)C1` (single isomer, unassigned) [Compound 165]: 794 nM; for `Cn1c(N2CCC(N3CCN([C@H]4CCN(C(=O)c5cc(C(F)(F)F)cc(C(F)(F)F)c5)[C@H](Cc5ccccc5)C4)CC3)C2)nc2ccccc21` (stereo partly shown) [Compound 8]: 3980 nM.
With `CN(C)CC(=O)N1CCC(N2CCN([C@H]3CCN(C(=O)c4cc(C(F)(F)F)cc(C(F)(F)F)c4)[C@H](Cc4ccccc4)C3)CC2)C1` (stereo partly shown) [Compound 202], the IC50 was 6310 nM.
On the same count and under the same terms, then `O=C(CNc1ccccc1CO)N1CCC(N2CCN(C3CCN(C(=O)c4cc(C(F)(F)F)cc(C(F)(F)F)c4)C(Cc4ccccc4)C3)CC2)C1` (stereo not shown) [Compound 207], with 3980 nM.

The target of the next assay is NK1 (Homo sapiens, UniProt P25103). Kind of assay: Signal transduction (ST), intracellular Ca++ (FLIPR), NK1 antagonistic activity. The format is cell-based. The settings on record: read-out: pIC50 NK1 (converted). The procedure:
as §1
The sigmoidal dose response curves were analysed by computerised curve-fitting, using the GraphPad Program. […] For antagonist responses the IC50-value was calculated using non-linear regression. […]
As to `Cc1occc1C(=O)N1CCC(N2CCN([C@H]3CCN(C(=O)c4cc(C(F)(F)F)cc(C(F)(F)F)c4)[C@H](Cc4ccccc4)C3)CC2)C1` (stereo partly shown) [Compound 36], the IC50 is 25.1 nM.
Consider `CC(C)(C)OC(=O)N1CCC(N2CCN(C3CCN(C(=O)c4cc(C(F)(F)F)cc(C(F)(F)F)c4)C(Cc4ccc(Cl)c(Cl)c4)C3)CC2)C1` (single isomer, unassigned) [Compound 165], for which the IC50 was 50.1 nM.
Consider `Cn1c(N2CCC(N3CCN([C@H]4CCN(C(=O)c5cc(C(F)(F)F)cc(C(F)(F)F)c5)[C@H](Cc5ccccc5)C4)CC3)C2)nc2ccccc21` (stereo partly shown) [Compound 8], for which the IC50 is 100 nM.
The same measure, in the same setting: then `CN(C)CC(=O)N1CCC(N2CCN([C@H]3CCN(C(=O)c4cc(C(F)(F)F)cc(C(F)(F)F)c4)[C@H](Cc4ccccc4)C3)CC2)C1` (stereo partly shown) [Compound 202], with 39.8 nM; and `O=C(CNc1ccccc1CO)N1CCC(N2CCN(C3CCN(C(=O)c4cc(C(F)(F)F)cc(C(F)(F)F)c4)C(Cc4ccccc4)C3)CC2)C1` (stereo not shown) [Compound 207], with 20 nM.
For the compound `Cc1cc(C)cc(C(=O)N2CC[C@H](N3CCN(C4CCN(C(=O)c5ccoc5)C4)CC3)C[C@H]2Cc2ccccc2)c1` (stereo partly shown) [Compound 85], the IC50 is 31.6 nM.
Same read-out and setting: then `CN(C)CCN1CCC[C@H]1C(=O)N1CCC(N2CCN([C@H]3CCN(C(=O)c4cc(C(F)(F)F)cc(C(F)(F)F)c4)[C@H](Cc4ccccc4)C3)CC2)C1` (stereo partly shown) [Compound 185], with 50.1 nM.
On the same count and under the same terms, then `O=C(c1cc(C(F)(F)F)cc(C(F)(F)F)c1)N1CC[C@H](N2CCN(C3CCNC3)CC2)C[C@@H]1Cc1ccccc1` (stereo partly shown) [Compound 118], with 126 nM; and `CC(C)N/C(=C\[N+](=O)[O-])N1CCC(N2CCN(C3CCN(C(=O)c4cc(C(F)(F)F)cc(C(F)(F)F)c4)C(Cc4ccccc4)C3)CC2)C1` (stereo not shown) [Compound 354], with 31.6 nM.
The same measure, in the same setting: the same measure for `CN1CCN(C(C(=O)N2CCC(N3CCN([C@H]4CCN(C(=O)c5cc(C(F)(F)F)cc(C(F)(F)F)c5)[C@H](Cc5ccccc5)C4)CC3)C2)c2ccccc2)CC1` (stereo partly shown) [Compound 105]: 63.1 nM; for `O=C(c1ccccc1)N1CCC(N2CCN([C@@H]3CCN(C(=O)c4cc(C(F)(F)F)cc(C(F)(F)F)c4)[C@H](Cc4ccccc4)C3)CC2)C1` (stereo partly shown) [Compound 136]: 200 nM.
With `CC(=O)N1CCC[C@H]1C(=O)N1CCC(N2CCN([C@H]3CCN(C(=O)c4cc(C(F)(F)F)cc(C(F)(F)F)c4)[C@H](Cc4ccccc4)C3)CC2)C1` (stereo partly shown) [Compound 186], the IC50 is 100 nM.
Still for that read-out and setting: then `O=C(c1cc(C(F)(F)F)cc(C(F)(F)F)c1)N1CCC(N2CCN(C3CCNC3)CC2)CC1Cc1ccc(Cl)c(Cl)c1` (stereo not shown) [Compound 244], with 79.4 nM; and `COC(=O)CCN1CCC(N2CCN(C3CCN(C(=O)c4cc(C(F)(F)F)cc(C(F)(F)F)c4)C(Cc4ccccc4)C3)CC2)C1` (stereo not shown) [Compound 80], with 100 nM; and `COCCOCC(=O)N1CCC(N2CCN([C@H]3CCN(C(=O)c4cc(C(F)(F)F)cc(C(F)(F)F)c4)[C@H](Cc4ccccc4)C3)CC2)C1` (stereo partly shown) [Compound 390], with 20 nM.
On the same count and under the same terms, then `O=C(c1cc(C(F)(F)F)cc(C(F)(F)F)c1)N1CCC(N2CCN(C3CCNC3)CC2)CC1Cc1ccc(F)c(F)c1` (single isomer, unassigned) [Compound 212], with 50.1 nM; and `O=C(C1CC1)N1CC[C@H](N2CCN([C@@H]3CCN(C(=O)c4cc(C(F)(F)F)cc(C(F)(F)F)c4)[C@@H](Cc4ccc(Cl)c(Cl)c4)C3)CC2)C1` [Compound 245], with 50.1 nM; and `O=C(c1c(Cl)cccc1Cl)N1CC[C@H](N2CCN([C@@H]3CCN(C(=O)c4cc(C(F)(F)F)cc(C(F)(F)F)c4)[C@@H](Cc4ccc(Cl)c(Cl)c4)C3)CC2)C1` [Compound 246], with 126 nM.
As to `O=C(CN1CCOCC1)N1CCC(N2CCN([C@H]3CCN(C(=O)c4cc(C(F)(F)F)cc(C(F)(F)F)c4)[C@H](Cc4ccccc4)C3)CC2)C1` (stereo partly shown) [Compound 197], the IC50 was 25.1 nM.
`CC(C)(C)C(=O)N1CC[C@H](N2CCN([C@@H]3CCN(C(=O)c4cc(C(F)(F)F)cc(C(F)(F)F)c4)[C@@H](Cc4ccc(Cl)c(Cl)c4)C3)CC2)C1` [Compound 247]: the IC50 was 31.6 nM.
Same read-out and setting: then `O=C(C1CCNC1)N1CCC(N2CCN([C@H]3CCN(C(=O)c4cc(C(F)(F)F)cc(C(F)(F)F)c4)[C@H](Cc4ccccc4)C3)CC2)C1` (stereo partly shown) [Compound 235], with 39.8 nM; and `O=C(C1CCCNC1)N1CCC(N2CCN([C@H]3CCN(C(=O)c4cc(C(F)(F)F)cc(C(F)(F)F)c4)[C@H](Cc4ccccc4)C3)CC2)C1` (stereo partly shown) [Compound 240], with 31.6 nM.
Same read-out and setting: the same measure for `O=C(CN1CCNCC1)N1CCC(N2CCN([C@H]3CCN(C(=O)c4cc(C(F)(F)F)cc(C(F)(F)F)c4)[C@H](Cc4ccccc4)C3)CC2)C1` (stereo partly shown) [Compound 201]: 50.1 nM; for `O=C(CN1CCCC1)N1CCC(N2CCN(C3CCN(C(=O)c4cc(C(F)(F)F)cc(C(F)(F)F)c4)C(Cc4ccccc4)C3)CC2)C1` (stereo not shown) [Compound 196]: 20 nM; for `CC(C)(C)OC(=O)N1CCC(N2CCN(C3CCN(C(=O)c4cc(C(F)(F)F)cc(C(F)(F)F)c4)C(Cc4ccc(Cl)c(Cl)c4)C3)CC2)C1` (single isomer, unassigned) [Compound 243]: 200 nM.
Still for that read-out and setting: then `Cc1nccn1CC(=O)N1CCC(N2CCN(C3CCN(C(=O)c4cc(C(F)(F)F)cc(C(F)(F)F)c4)C(Cc4ccccc4)C3)CC2)C1` (stereo not shown) [Compound 209], with 20 nM; and `O=C(c1cc(C(F)(F)F)cc(C(F)(F)F)c1)N1CCC(N2CCN(C3CCN(CCCCO)C3)CC2)CC1Cc1ccc(Cl)c(Cl)c1` (stereo not shown) [Compound 393], with 5.01 nM.
Regarding `O=C([C@@H]1CCCN1)N1CCC(N2CCN([C@H]3CCN(C(=O)c4cc(C(F)(F)F)cc(C(F)(F)F)c4)[C@H](Cc4ccccc4)C3)CC2)C1` (stereo partly shown) [Compound 144], the IC50 was 126 nM.
The same measure, in the same setting: then `O=C(C1CCOC1)N1CCC(N2CCN(C3CCN(C(=O)c4cc(C(F)(F)F)cc(C(F)(F)F)c4)C(Cc4ccccc4)C3)CC2)C1` (single isomer, unassigned) [Compound 129], with 251 nM; and `O=C(c1cc(C(F)(F)F)cc(C(F)(F)F)c1)N1CCC(N2CCN(C3CCN(Cc4ccccc4)C3)CC2)CC1Cc1ccccc1` (stereo not shown) [Compound 1], with 100 nM.
For the compound `O=C(c1cc(C(F)(F)F)cc(C(F)(F)F)c1)N1CC[C@H](N2CCN([C@@H]3CCNC3)CC2)C[C@H]1Cc1ccccc1` [Compound 149], the IC50 was 39.8 nM.
The same measure, in the same setting: the same measure for `O=C(c1cc(C(F)(F)F)cc(C(F)(F)F)c1)N1CC[C@H](N2CCN([C@H]3CCNC3)CC2)C[C@H]1Cc1ccccc1` [Compound 148]: 63.1 nM; for `O=C(c1cc(C(F)(F)F)cc(C(F)(F)F)c1)N1CCC(N2CCN(C3CCNC3)CC2)CC1Cc1ccccc1` (stereo not shown) [Compound 2]: 63.1 nM; for `O=C(c1cc(C(F)(F)F)cc(C(F)(F)F)c1)N1CCC(N2CCN(C3CCNC3)CC2)CC1Cc1ccc(F)c(F)c1` (single isomer, unassigned) [Compound 225]: 15.8 nM.
Still for that read-out and setting: then `O=C(C1CCNCC1)N1CCC(N2CCN(C3CCN(C(=O)c4cc(C(F)(F)F)cc(C(F)(F)F)c4)C(Cc4ccccc4)C3)CC2)C1` (stereo not shown) [Compound 241], with 31.6 nM.

(Values after patent publication US7795261B2, “Substituted 1-piperidin-4-yl-4-pyrrolidin-3-yl-piperazine derivatives and their use as neurokinin antagonists” (Janssen Pharmaceutica NV, priority 2002, dated 2010).)
